The nature of data set [1]: Biodistribution in Dunkin-Hartley guinea pig brain at 800 uM, iv after 20 mins using [3H]mannitol vascular space marker by scintillation counting. It is filed as ADME, organism-based, Cavia porcellus. Particulars: in vivo.
Data set [2] in a line: Biodistribution in Dunkin-Hartley guinea pig brain parenchyma at 800 uM, iv after 20 mins using [3H]mannitol vascular space marker by scintillation counting. Format: ADME, organism-based, Cavia porcellus. Particulars: in vivo.

`Cc1c(O)c(=O)ccn1C` [DEFERIPRONE]: the Drug uptake in data set [1] is 0.052 mL/g; in data set [2] it was 0.044 mL/g.
For `Cc1c(O[C@@H]2O[C@H](CO)[C@@H](O)[C@H](O)[C@H]2O)c(=O)ccn1C`, in that order: under 0.001 mL/g and under 0.001 mL/g.

(Values after ChEMBL document CHEMBL1212929, “Glucosylated deferiprone and its brain uptake: implications for developing glucosylated hydroxypyridinone analogues intended to cross the blood-brain barrier” (J Med Chem, 2010).)
